24 compounds from patent EP0462123B1, “UV-ABSORBING COMPOUNDS AND COMPOSITIONS” (AUSTRALIAN INSTITUTE OF MARINE SCIENCE, priority 1989, dated 1990) can be followed below.

Structures are written as SMILES.

Data set [1] in a line: E1%: relative UV absorbance of a 1% w/w solution. Format: physicochemical. The following applies: relative measure of the UV absorbance of a 1% w/w solution of the compound. The text has this:
This example compares the ultraviolet light absorbing properties and water resistance properties of compounds of the invention.
E1% is a relative measure of the UV absorbance of a 1% w/w solution of the compound.

The nature of data set [2]: log P (octanol/water partition coefficient) by HPLC method of Leahy, Taylor and Wait. In kind it is physicochemical. The following applies: octanol in conjunction with water. An excerpt: Water resistance of compounds of formula I may be evaluated by reference to the partition coefficient of the compounds using a non-polar solvent such as octanol in conjunction with water. The term log P, where P is the partition coefficient, where used herein refers to the log P value determined by the HPLC method of David E Leahy, Peter J Taylor and Alan R Wait, Ouant. Struct.-Act Relat., 8, 17-31 (1989) at pages 23 and 24. Log P may be used to directly compare the lipophilicity of a variety of molecules as described by Hansch, C., and Leo, A. J., Substituent Constants for Correlation Analysis in Chemistry and Biology, John Wiley, New York 1979.
Struct. Act Relat., 8, 17-31 (1989) and the results are recorded in Table 6.

On to `CCC(=O)C1=CN(CC(C)C)CCC1(C)C` [Compound 1, I-(2-Methylpropyl)-3-propionyl-4,4-dimethyl-1,4,5,6-tetrahydropyridine], for which the E1% in data set [1] came to 131. Moreover, the chromatographic logP (in general, lipophilicity estimated from chromatographic retention) in data set [2] amounted to 3.2.

In data set [1], `CC(=O)C1=CN(CC(C)C)CCC1(C)C` [Compound 2, I-(2-Methylpropyl) -3-acetyl-4,4-dimethyl-1,4,5,6-tetrahydropyridine] gave an E1% of 140. Also, the chromatographic logP in data set [2] is 2.7.

`CCCC(=O)C1=CN(CC(C)C)CCC1(C)C` [Compound 3, 1-(2-Methylpropyl) -3-butyryl-4,4-dimethyl-1,4,5,6-tetrahydropyridine] gave an E1% in data set [1] of 124. In addition, the chromatographic logP in data set [2] was found to be 3.7.

For `CC(C)CN1C=C(C(=O)C(F)(F)F)C(C)(C)CC1` [Compound 4, 1-(2-Methylpropyl) -3-trifluoroacetyl-4,4-dimethyl-1,4,5,6-tetrahydropyridine], the E1% in data set [1] stood at 112. This compound yielded a chromatographic logP in data set [2] of 3.

With `CCCCCCCC(=O)C1=CN(CC(C)C)CCC1(C)C` [Compound 5, 1-(2-Methylpropyl) -3-octanoyl-4,4-dimethyl-1,4,5,6-tetrahydropyridine], the E1% in data set [1] is reported as 100. Also, the chromatographic logP in data set [2] amounted to 5.8.

In data set [1], `CCCCCCCCCCCCCCCCN1C=C(C(=O)CC)C(C)(C)CC1` [Compound 6, 1-Palmityl-3-propionyl-4,4-dimethyl-1,4,5,6-tetrahydropyridine] yielded an E1% of 75. Further, the chromatographic logP in data set [2] came to 9.4.

Consider `CCCCCCCC(=O)C1=CN(CC)CCC1(C)C` [Compound 7, 1-Ethyl-3-octanoyl--4,4-dimethyl-1,4,5,6-tetrahydropyridine], for which the E1% in data set [1] was 110. Besides, in data set [2], the chromatographic logP was determined as 4.8.

For `CCCCC(CC)CN1C=C(C(=O)CC)C(C)(C)CC1` (centres unmarked) [Compound 8, 1-(2-Ethylhexyl)-3-propionyl-4,4-dimethyl-1,4,5,6-tetrahydropyridine], the E1% in data set [1] was 105. The compound also showed a chromatographic logP in data set [2] of 5.3.

As to `CCCCCCCCCC(=O)C1=CN(CC)CCC1(C)C` [Compound 9, I-Ethyl-3-decanoyl--4,4-dimethyl-1,4,5,6-tetrahydropyridine], the E1% in data set [1] is recorded as 100. The compound also showed a chromatographic logP in data set [2] of 5.8.

With `CCCCCCCCCCCCCCCC(=O)C1=CN(CC)CCC1(C)C` [Compound 10, 1-Ethyl-3-palmitoyl--4,4-dimethyl-1,4,5,6-tetrahydropyridine], in data set [1], the E1% turned out to be 77. In data set [2], this compound had a chromatographic logP of 8.9.

The compound `CCCCCCCCCCCCCC(=O)C1=CN(C)CCC1(C)C` [Compound 11, 1-Methyl-3-myristoyl-4,4-dimethyl-1,4,5,6-tetrahydropyridine] yielded an E1% in data set [1] of 87. In data set [2], the chromatographic logP came out at 7.4.

On to `CCCCCCCC(=O)C1=CN(CCCCCCC)CCC1(C)C` [Compound 12, 1-Heptyl-3-octanoyl-4,4-dimethyl--1,4,5,6-tetrahydropyridine], for which the E1% in data set [1] turned out to be 87. In data set [2], this compound had a chromatographic logP of 7.4.

In turn, `CCCCC(CC)COC(=O)CCC(=O)C1=CN(CC)CCC1(C)C` (centres unmarked) [Compound 13, 1-Ethyl-3(2-ethyl-hexylsuccinoyl)--4,4-dimethyl-1,4,5,6-tetrahydropyridine] gave an E1% in data set [1] of 87. The compound also showed a chromatographic logP in data set [2] of 6.9.

`CCCCCCCCCC(=O)C1=CN(CCC)CCC1(C)C` [Compound 14, 1-Propyl-3-decanoyl-4,4-dimethyl-1,4,5,6-tetrahydropyridine]: the E1% in data set [1] was determined as 95. In data set [2], the chromatographic logP was 6.3.

With `CCCCCCCCCC(=O)C1=CN(C(C)C)CCC1(C)C` [Compound 15, 1-(-Methylethyl)-3 decanoyl--4,4-dimethyl-1,4,5,6-tetrahydropyridine], in data set [2], the chromatographic logP was determined as 6.3.

Take `CCCCCCCCCC(=O)C1=CN(CC(C)C)CCC1(C)C` [Compound 16, 1-(2-Methylpropyl) -3-decanoyl--4,4-dimethyl-1,4,5,6-tetrahydropyridine]: the E1% in data set [1] stood at 91. Moreover, in data set [2], the chromatographic logP was determined as 6.9.

Regarding `CCCCCCCCCCCC(=O)C1=CN(C)CCC1(C)C` [Compound 17, 1-Methyl-3-lauroyl--4,4-dimethyl 4,5,6-tetrahydropyridine], the E1% in data set [1] amounted to 95. In data set [2], this compound yielded a chromatographic logP of 6.3.

Take `CCCCCCCCCCN1C=C(C(=O)CC)C(C)(C)CC1` [Compound 18, 1-Decyl-3-propionyl--4,4-dimethyl-1,4,5,6-tetrahydropyridine]: the E1% in data set [1] is on record as 95. In data set [2], this compound returned a chromatographic logP of 6.3.

`CCCCCCCC(=O)C1=CN(C2CCCCC2)CCC1(C)C` [Compound 19, 1-Cyclohexyl-3-octanoyl-4,4-dimethyl-1,4,5,6-tetrahydropyridine] yielded an E1% in data set [1] of 91. The compound further showed a chromatographic logP in data set [2] of 6.9.

In data set [1], `CCCCCCCCCC(=O)C1=CN(C(C)(C)C)CCC1(C)C` [Compound 20, 1-(1,1-Dimethyl-ethyl)-3-decanoyl--4,4-dimethyl-1,4,5,6-tetrahydropyridine] displayed an E1% of 91. Further, in data set [2], the chromatographic logP came to 6.9.

Regarding `CCCCCCCC(=O)C1=CN(C(C)(C)C)CCC1(C)C` [Compound 21, 1-(1,1-Dimethyl-ethyl)-3-octanoyl-4,4-dimethyl-1,4,5,6-tetrahydropyridine], in data set [1], the E1% is recorded as 100. The compound also returned a chromatographic logP in data set [2] of 5.8.

On to `CCCCCC(=O)C1=CN(C(C)(C)C)CCC1(C)C` [Compound 22, 1-(1,1-Dimethyl-ethyl) -3-hexanoyl-4,4-dimethyl-1,4,5,6-tetrahydropyridine], for which the E1% in data set [1] was determined as 110. Moreover, in data set [2], the chromatographic logP came to 4.8.

In data set [1], `CCCCCCCC(=O)C1=CN(C(C)C)CCC1(C)C` [Compound 23, 1-(1-Methylethyl)-3-octanoyl-4,4-dimethyl-1,4,5,6-tetrahydropyridine] gave an E1% of 105. In data set [2], this compound registered a chromatographic logP of 5.3.

`CC(C)CN1C=C(C(=O)CCCCC(=O)C2=CN(CC(C)C)CCC2(C)C)C(C)(C)CC1` [Compound 24] came in with an E1% in data set [1] of 131. Also, in data set [2], the chromatographic logP came to 9.4.
